Marks after values point to notes of the source that are not given here.

The conditions of the first data set: pH 2.3.
For `COc1nccc(-c2c[nH]nc2-c2ccc(Cl)s2)n1` [Example 69], the log p was 2.23^[a]. On the same count and under the same terms, with `CC(C)Cn1cc(-c2ccnc(Cl)c2)c(-c2ccc(Cl)s2)n1` [Example 70] the figure was 4.85^[a]; with `CCCNc1cc(-c2c[nH]nc2-c2ccc(Cl)s2)cc[n+]1[O-]` [Example 71], 1.9^[a].

In the case of `CC(C)Cn1ncc(-c2ccnc(Cl)c2)c1-c1ccc(Cl)s1` [Example 72], the log p is 4.65^[a].

`CC(C)Cn1cc(-c2cc[n+]([O-])c(NCc3ccccc3)c2)c(-c2ccc(Cl)s2)n1` [Example 73]: the log p is 3.73^[a]. `CC(C)Cn1cc(-c2cc[n+]([O-])c(Cl)c2)c(-c2ccc(Cl)s2)n1` [Example 74]: the log p was 3.04^[a] and the “logP value of the minor isomer (in parenthesis in column Isomer ratio [d])” value is “(2.82)”. With `CC(C)Cn1ncc(-c2cc[n+]([O-])c(NCc3ccccc3)c2)c1-c1ccc(Cl)s1` [Example 75], the log p was 3.48^[a]. As to `CC(C)Cn1cc(-c2cc[n+]([O-])c(N)c2)c(-c2ccc(Cl)s2)n1` [Example 77], the log p was 2.39^[a] and the “logP value of the minor isomer (in parenthesis in column Isomer ratio [d])” value is recorded as “(2.21)”. Consider `NNc1nccc(-c2c[nH]nc2-c2ccc(Cl)s2)n1` [Example 78], for which the log p is 2.26^[a]. The same measure, in the same setting: with `CN(C)c1nccc(-c2c[nH]nc2-c2ccc(Cl)s2)n1` [Example 79] the figure was 1.69^[a]. Consider `Clc1nccc(-c2c[nH]nc2-c2ccc(Cl)s2)n1` [Example 81], for which the log p is 2.64^[a]. On the same count and under the same terms, under `C#CCNc1cc(-c2cnn(CC(C)C)c2-c2ccc(Cl)s2)cc[n+]1[O-]` [Example 83] stands 2.7^[a]; under `C#CCNc1cc(-c2cn(CC(C)C)nc2-c2ccc(Cl)s2)cc[n+]1[O-]` [Example 84], 2.92^[a]. Same read-out and setting: under `Clc1ccc(-c2n[nH]cc2-c2ccnc(NCc3ccccc3)n2)s1` [Example 90] stands 2.37^[a]. Turning to `CC(CN(C)C)Cn1cc(-c2ccnc(Cl)c2)c(-c2ccc(Cl)s2)n1` (stereo not drawn) [Example 91], the log p is 1.84^[a] and the “logP value of the minor isomer (in parenthesis in column Isomer ratio [d])” value is on record as “(1.74)”. Turning to `CC(C)Cn1cc(-c2ccnc(NCc3ccccc3)n2)c(-c2ccc(Cl)s2)n1` [Example 93], the log p was 4.31^[a]. Turning to `CC(C)Cn1cc(-c2ccnc(N(Cc3ccccc3)C(=O)C(C)C)n2)c(-c2ccc(Cl)s2)n1` [Example 94], the log p is 5.88^[a].

`CC(C)Cn1ncc(-c2ccnc(NCc3ccccc3)n2)c1-c1ccc(Cl)s1` [Example 96]: the log p was 3.96^[a]. The same measure, in the same setting: under `CC(C)n1cc(-c2ccnc(NC=O)n2)c(-c2ccc(Cl)s2)n1` [Example 144] stands 3.81^[a].

Staying with this data set, now noted: pH 2.7.
In the case of `Cc1[nH]nc(-c2ccc(Cl)s2)c1-c1ccncc1` [Example 68], the log p is 1.07^[b]. On the same count and under the same terms, under `N#Cc1[nH]nc(-c2ccc(Cl)s2)c1-c1ccncc1` [Example 85] stands 1.53^[b]. The same measure, in the same setting: under `CCOC(=O)n1cc(-c2ccncc2)c(-c2ccc(Cl)s2)n1` [Example 87] stands 1.97^[b]; under `CS(=O)(=O)n1cc(-c2ccncc2)c(-c2ccc(Cl)s2)n1` [Example 88], 1.78^[b].

Take `CC(C)NC(=O)n1cc(-c2ccncc2)c(-c2ccc(Cl)s2)n1` [Example 89]: the log p is 2.26^[b]. On the same count and under the same terms, under `CCC(C)n1cc(-c2ccnc(C(=O)NC(C)C)c2)c(-c2ccc(Cl)s2)n1` (stereo not drawn) [Example 99] stands 4.82^[b]; under `CCC(C)n1cc(-c2ccnc(Br)c2)c(-c2ccc(Cl)s2)n1` (stereo not drawn) [Example 100], 5.03^[b]; under `COc1ccc(Cn2nc(-c3ccc(Cl)s3)c(-c3ccncc3)c2[Si](C)(C)C)cc1` [Example 102], 4.84^[b]. On the same count and under the same terms, under `COc1ccc(Cn2nc(-c3ccc(Cl)s3)c(-c3ccncc3)c2SC)cc1` [Example 103] stands 3.78^[b]; under `CCC(C)n1cc(-c2ccnc(C#CC3CC3)c2)c(-c2ccc(Cl)s2)n1` (stereo not drawn) [Example 111], 4.56^[b]; under `C#CCNc1cc(-c2cn(CC(C)C)nc2-c2ccc(Cl)s2)ccn1` [Example 112], 2.30^[b]. Take `Fc1ccccc1Cn1cc(-c2ccncc2)c(-c2sccc2Cl)n1` [Example 113]: the log p was 1.74^[b] and the “logP value of the minor isomer (in parenthesis in column Isomer ratio [d])” value was “(1.76)”. For `CC(C)n1cc(-c2ccncc2)c(-c2cc(Cl)cs2)n1` [Example 114] the same measures were 1.6^[b] and “(1.74)”.

As to `COCn1cc(-c2ccnc(NC(C)C)n2)c(-c2ccc(Cl)s2)n1` [Example 115], the log p was 2.39^[b] and the “logP value of the minor isomer (in parenthesis in column Isomer ratio [d])” value is given as “(2.39)”. In the same order, the values of `CCC(CC)n1cc(-c2ccnc(NC(C)C)n2)c(-c2ccc(Cl)s2)n1` [Example 116] are 3.57^[b] and “(3.37)”. In the same order, the values of `C#CCn1cc(-c2ccnc(NC(C)C)n2)c(-c2ccc(Cl)s2)n1` [Example 117] are 2.52^[b] and “(3.13)”. On to `CC(C)=CCn1cc(-c2ccnc(NC(C)C)n2)c(-c2ccc(Cl)s2)n1` [Example 118], for which the log p was 3.44^[b] and the “logP value of the minor isomer (in parenthesis in column Isomer ratio [d])” value is reported as “(3.00)”.

Regarding `CC(C)Nc1nccc(-c2cn(CCCl)nc2-c2ccc(Cl)s2)n1` [Example 119], the log p is 2.63^[b] and the “logP value of the minor isomer (in parenthesis in column Isomer ratio [d])” value is “(2.35)”.

In the case of `CCOCCn1cc(-c2ccnc(NC(C)C)n2)c(-c2ccc(Cl)s2)n1` [Example 120], the log p is 2.56^[b] and the “logP value of the minor isomer (in parenthesis in column Isomer ratio [d])” value is reported as “(2.33)”. For `CC(C)Nc1nccc(-c2cn(Cc3ccccc3F)nc2-c2ccc(Cl)s2)n1` [Example 121] the same measures were 3.39^[b] and “(3.02”. As to `CC(C)Nc1nccc(-c2cn(CC#N)nc2-c2ccc(Cl)s2)n1` [Example 122], the log p was 2.4^[b]. Take `C=CC(C)n1cc(-c2ccnc(NC(C)C)n2)c(-c2ccc(Cl)s2)n1` (stereo not drawn) [Example 123]: the log p is 3.02^[b] and the “logP value of the minor isomer (in parenthesis in column Isomer ratio [d])” value is given as “(2.73)”.

As for `CC(C)Nc1nccc(-c2cn(CC(F)(F)F)nc2-c2ccc(Cl)s2)n1` [Example 124], the log p was 3.11^[b]. With `Cn1cc(-c2ccncc2)c(-c2cc(Cl)cs2)n1` [Example 125], the log p is 1.11^[b] and the “logP value of the minor isomer” value is reported as “(1.05)”. `N#CCCn1cc(-c2ccncc2)c(-c2cc(Cl)cs2)n1` [Example 126]: the log p is 1.16^[b].

As for `FC(F)Cn1cc(-c2ccncc2)c(-c2sccc2Cl)n1` [Example 127], the log p is 1.14^[b] and the “logP value of the minor isomer” value is on record as “(1.17)”. In the same order, the values of `Clc1ccsc1-c1nn(CCc2ccccc2)cc1-c1ccncc1` [Example 128] are 1.88^[b] and “(1.84)”. As for `COCn1cc(-c2ccncc2)c(-c2sccc2Cl)n1` [Example 129], the log p is 0.95^[b]. As to `CCC(CC)n1cc(-c2ccncc2)c(-c2sccc2Cl)n1` [Example 130], the log p was 1.78^[b] and the “logP value of the minor isomer” value is “(1.88)”.

As for `C#CCn1cc(-c2ccncc2)c(-c2sccc2Cl)n1` [Example 131], the log p is 1.11^[b] and the “logP value of the minor isomer” value is “(1.10)”. In the same order, the values of `CCC(C)n1cc(-c2ccncc2)c(-c2sccc2Cl)n1` (stereo not drawn) [Example 132] are 1.56^[b] and “(1.67)”.

Turning to `CC(C)=CCn1cc(-c2ccncc2)c(-c2sccc2Cl)n1` [Example 133], the log p was 1.74^[b]. Consider `ClCCn1cc(-c2ccncc2)c(-c2sccc2Cl)n1` [Example 134], for which the log p is 1.22^[b] and the “logP value of the minor isomer” value is listed as “(1.29)”. Take `CCOCCn1cc(-c2ccncc2)c(-c2sccc2Cl)n1` [Example 135]: the log p is 1.23^[b]. For the compound `C=CCn1cc(-c2ccncc2)c(-c2sccc2Cl)n1` [Example 136], the log p was 1.22^[b] and the “logP value of the minor isomer” value is “(1.28)”. In the same order, the values of `N#CCn1cc(-c2ccncc2)c(-c2sccc2Cl)n1` [Example 137] are 0.93^[b] and “(0.78”. As to `FC(F)(F)Cn1cc(-c2ccncc2)c(-c2sccc2Cl)n1` [Example 138], the log p is 1.39^[b].

Turning to `CC(C)Nc1nccc(-c2cn(C)nc2-c2ccc(Cl)s2)n1` [Example 139], the log p is 2.07^[b] and the “logP value of the minor isomer” value is “(1.93)”. `CC(C)Nc1nccc(-c2cn(CCC#N)nc2-c2ccc(Cl)s2)n1` [Example 140]: the log p is 2.15^[b]. Turning to `CCn1cc(-c2ccnc(NC(C)C)n2)c(-c2ccc(Cl)s2)n1` [Example 141], the log p was 2.39^[b] and the “logP value of the minor isomer” value is “(2.20)”.

Take `Cn1cc(-c2ccncc2)c(-c2sccc2Cl)n1` [Example 142]: the log p is 0.78^[b] and the “logP value of the minor isomer” value is “(0.88)”. `N#CCCn1cc(-c2ccncc2)c(-c2sccc2Cl)n1` [Example 143]: the log p was 0.86^[b]. As for `Cc1c(-c2ccncc2)c(-c2ccc(Cl)s2)nn1C` [Example 147], the log p was 1.29^[b]. Same read-out and setting: with `CC(C)Cn1cc(-c2ccncc2)c(-c2cc(Cl)cs2)n1` [Example 152] the figure was 1.87^[b]; with `CC(C)Nc1nccc(-c2cn(CCc3ccccc3)nc2-c2ccc(Cl)s2)n1` [Example 153], 3.63^[b]; with `CC(C)Nc1nccc(-c2cn(C3CCCC3)nc2-c2ccc(Cl)s2)n1` [Example 154], 3.61^[b]. On the same count and under the same terms, under `C=CCn1cc(-c2ccnc(NC(C)C)n2)c(-c2ccc(Cl)s2)n1` [Example 155] stands 2.68^[b]; under `CCn1cc(-c2ccncc2)c(-c2cc(Cl)cs2)n1` [Example 156], 1.34^[b].

Still in this data set, the particulars now being: pH 7.8.
`Cc1c(-c2ccncc2)c(-c2ccc(Cl)s2)nn1C` [Example 147]: the log p is 2.62^[c];.

The record behind these values is US8685974B2 (Bayer CropScience AG, priority 2009, dated 2014).
